Consider two substances from patent publication US20240125775A1, “IMMOBILIZATION AND MAGNETIC EXTRACTION OF PATHOGENS AND PATHOGEN COMPONENTS” (priority 2020, published 2024).

Entries after “also recorded” stand apart in the source; their conditions may differ. Ends that are not written are not given here.

Data set [1] deals with lipoteichonic acids (LTA). The data set is described as follows: Binding of LTA in aqueous Ringer' solution. The note with it: 0.3 mg Fe/ml, 2.5 ng/ml LTA; for LTA bound: 5 minutes at 37° C., magnet 3 minutes. The protocol: The binding of a further relevant toxin (from gram-positive bacteria) was also investigated with the improved particles as disclosed herein, which was not described in Karawacka et al. (2018). These experiments were performed in aqueous Ringer' solution. […] For this experiment, 2.5 ng/ml LTA were used and incubated for 5 minutes at 37° C. on a shaker at 700 rpm. Subsequently, the particles were separated magnetically for 3 minutes. […] SPION^APTES-SBA-SPP04/SPION^APTES-SBA-SPP19 could bind 0.75 ng/ml LTA and 0.97 ng/ml, respectively. Thus, a reduction of LTA by 30% and 29%, respectively, could be detected by using the improved particles SPION^APTES-SBA-SPP04/SPION^APTES-SBA-SPP19 as disclosed herein.

Another data set has as its system Staphylococcus aureus. The data set is described as follows: Depletion of Staphylococcus aureus from aqueous medium. The format is cell-based. Particulars: for Staphylococcus aureus after separation: from 1393 CFU/ml, 0.3 mg Fe/ml, Ringer's solution; for CFU of re-plated bacteria loaded particles: re-plating, S. aureus. From the text:
For testing the separation of S. aureus from a sample, particles were functionalized with the peptides SPP04 and SPP19 for this experiment. The bacterial suspension was adjusted to an OD (measured at 600 nm) of 0.13 and then diluted 1:800 with Ringer's solution. […] It could also be shown that the particles have no toxic effect on the bacteria. For Staphylococcus aureus (gram+) a reduction from 1393 CFU/ml to 27 CFU/ml for SPION^APTES-SBA-SPP04 and 73 CFU/ml for SPION^APTES-SBA-SPP19 could be achieved by separation as shown in FIG. 12.

The subject of a further data set is Pseudomonas aeruginosa. Kind of data set: Depletion of Pseudomonas aeruginosa from aqueous medium. Format: cell-based. The note with it: from 5320 CFU/ml, 0.3 mg Fe/ml. Here is the method: (§1) Analogous observations are shown in FIG. 13 for the gram negative bacterium Pseudomonas aeruginosa reduction from 5320 CFU/ml to 2 CFU/ml for SPION^APTES-SBA-SPP04 and 7 CFU/ml for SPION^APTES-SBA-SPP19 could be achieved. For Serratia marcescens (gram−) a reduction from 1300 CFU/ml to 26 CFU/ml for SPION^APTES-SBA-SPP04 could be achieved as shown in FIG. 14. Redispersed particles that were plated out yielding a recovery of 1227 CFU/ml for SPION^APTES-SBA-SPP04, which is similar to the positive control.

A short description of data set [2]: Hydrodynamic particle size (dynamic light scattering). The format is physicochemical. Particulars: neutral pH (e.g. around 7). Here is the method: Dynamic light scattering (DLS) was performed with a Zetasizer Nano ZS (Malvern Panalytical, Almelo, Netherlands) to determine the hydrodynamic particle size of the NP at 25° C.in water (refractive index 1.33; viscosity 0.8872 mPa-s; backscattering mode at 173°). The same device was used to measure the particle's aqueous zeta potential with 78.5 as dielectric constant. Measurements were done in triplicate at an iron concentration of 50 μg/ml and pH of 7.4, the results were averaged.

The subject of data set [3] is LPS (E. coli LPS O55:B5, O26:B6, O111:B4). Kind of data set: LPS (endotoxin) binding, EndoZyme Recombinant Factor C Assay. Particulars: 10 EU/ml LPS. Here is the method: In order to evaluate general parameters of the concentration and incubation time with SPIONs, the inventors analysed conditions that are representative for these parameters. A high and a low particle concentration, as well as two exposure conditions were tested (agitation for 30 sec and 3 sec; particle concentration of 0.01 mg Fe/ml and 1 mg Fe/ml) were tested with the peptide exposing SPION^APTES-SBA-SPP04 and non-peptide exposing SPION^HAP. The concentration of peptide for the functionalized particles was assumed to be 0.08 μmol peptide/mg Fe, as assessed above. As other particles have been reported to bind certain amounts of LPS unspecifically, SPION^HAp are interesting for our experiments concerning this concern as a control.
Binding studies of endotoxin were performed with EndoZyme Recombinant Factor C Assay kit (Hyglos, Germany). In this kit, LPS is detected by recombinant Factor C, thus excluding possible interferences by p-glucans. Calibration curves for the three different LPSs have been prepared in endotoxin free water. SPION^APTES-SBA-SPP04 was used in this study as its efficacy has been described previously. For this experiment, we used two different iron concentrations (1 mg Fe/ml and 0.01 mg Fe/ml) and two incubation parameters (30 s at 1400 rpm and 37° C. as well as 3 s at RT). Three different LPSs were added to 200 μl of the different particle dispersions. The final concentration of LPS was set to 10 EU/ml in each tested sample. Spiking controls (8 and 5 EU/ml) were carried out to see if any interference occurred for all tested particles.
Supernatants were produced using a neodymium magnet (310 mT at separation side) for three minutes. 50 μl of each supernatant were mixed with 50 μl of the assay reagent (80% v/v assay buffer, 10% v/v substrate, 10% v/v enzyme) in black, endotoxin-free 96-well plates. The reaction was monitored for 90 minutes at 37° C. in 15 min intervals by recording the fluorescence at an excitation wavelength of 360 nm and an emission at 465 nm in a Filter-Max F5 Plate reader (Molecular Devices).

Data set [4] in a line: Separation of micromer^LPS (artificial gram-negative bacteria). Particulars: initial 0.1 mg/ml micromer^LPS, 1 mg/ml Fe, 2 h, OD 620 nm. The protocol:
For a better understanding of the separation process, the inventors tried to remove artificial micromers to simulate bacteria. For this, LPS coated polystyrene/polymethacrylate Micromer® particles (micromer^LPS) were used and removed from a water suspension instead of living bacteria. […] This experiment was performed by optical density measurements at 620 nm, as it is done for actual bacteria.
For this experiment micromer® particles (micromer) were incubated with endotoxin to receive endotoxin coated micromer particles (micromer^LPS). Any other polymeric particles of similar size could have been used as an alternative. It has been reported, that endotoxins stick to surfaces and can be attached to polymeric particles. Therefore, particles bearing 1 mg particles/ml was incubated with 1 μg/ml endotoxin LPS3 for 2 h at 1400 rpm. After centrifugation the particles were washed several times.
SPION^APTES-SBA-SPP04 and unmodified SPION^HAp with a Fe concentration of 1 mg/ml were incubated with 0.1 mg micromer^LPS for 2 h at 1400 rpm and 37° ° C. SPION^APTES served as a control. A calibration curve was prepared with different concentrations of micromer^LPS. The calibration samples and the magnetically decanted supernatants were measured in the reader at 620 nm absorption wavelength like it is used for the OD measurements of bacteria (Brenner et al. 2005 and Chen et al. 2011). […]

Data set [5] has as its system E. coli. The data set is described as follows: Magnetic separation of E. coli from aqueous medium (Ringer solution). The format is cell-based. The note with it: 5 minutes incubation, 3 minutes separation. The protocol: E. coli were incubated with particles for 5 minutes and then separated for 3 minutes. Supernatants were plated out. […] A reduction of the particle amount to 0.1 mg Fe/ml led to a reduced bacterial separation 170 CFUS).

The subject of a further data set is Serratia marcescens. The data set is described as follows: Depletion of Serratia marcescens from aqueous medium. Format: cell-based. Here is the method: as §1
Data set [6] concerns E. coli. Kind of data set: Separation of E. coli from blood. The format is cell-based. The protocol: For this experiment, E. coli was added to blood and then 0.3 mg Fe/ml particles were used to extract/separate the bacteria. Thus, the remaining bacterial load in the blood was tested as a first aspect of this experiment. Furthermore, citrate and EDTA-stabilized blood was used and compared, as EDTA is expected to hinder the binding of the peptide to the bacteria. Therefore, the depletion of bacteria is expected to be lower in EDTA-stabilized blood compared to citrate-stabilized blood. The overall bacterial load in citrate stabilized blood amounted to 1913 colony forming units per milliliter (CFU/ml) (FIG. 15). SPION^APTES-SBA-SPP04 particles reduced the concentration to 927 CFU/ml in citrate-stabilized blood. […] For completeness, in EDTA-stabilized blood, the amount of CFUs was reduced from 2867 CFU/ml to 1733 CFU/ml by SPION^APTES-SBA-SPP04. Thus, a reduction of around 40% was achieved.
In this experiment we used blood from health volunteers and added an amount of bacteria to it. A concentration of 0.3 mg Fe/ml was used for the particles. To 0.8 ml of blood, (citrate or EDTA stabilized) 0.1 bacteria suspension in Ringer's solution have been added. After 5 min. of incubation, 0.1 ml of particles (3 mg Fe/ml) in Ringer's solution have been added. Samples were incubated for 5 minutes on a shaker at 700 rpm. After incubation, the particles have been removed by placing a magnet (310 mT) behind the samples. After 3 min separation of the particles the supernatant were plated out. As a negative control only 0.2 ml Ringer's solution was added to blood. The positive control consisted of 0.8 ml blood and 0.1 ml bacteria suspension and another 0.1 ml Ringer's solution. In addition the particles were washed one time after separation and then redispersed in Ringer's solution and plated out.
After 16 h of incubation, the CFUs (colony forming units) on the plates have been counted. The samples have been compared to the amount found in the positive control.

The subject of the next data set is bacteria. The data set is described as follows: Concentration of viable bacteria (10 ml sample, plating). The format is cell-based. The note with it: 0.3 mg Fe/ml, 30 minutes, 310 mT 3 minutes, 10 ml to 0.5 ml. Here is the method:
In this experiment, an approach as used with common blood cultures in order to identify pathogens was chosen. The total volume was set to 10 ml. The bacterial suspension was adjusted to an OD (measured at 600 nm) of 0.13 with Ringer's solution analogous to the previous experiments. A sample, which was not treated with SPIONs, served as a control. A concentration of 0.3 mg Fe/ml SPION^APTES-SBA-SPP04 was used. Incubation was performed for 30 minutes at room temperature on a rolling incubator. The particles were then magnetically separated for 3 minutes at 310 mT. 0.5 ml Ringer's solution was added to the particle pellets and vortexed. […] A total of 50 μl was plated out for each sample. […] Compared to common blood cultures, bacterial pathogens can be detected faster by using this method, because the amplification step of the bacteria using blood culture bottles could be omitted.

In the case of “SPION^APTES-SBA-SPP19: APTES-coated SPIONs linked via SBA to peptide SPP19 (SEQ ID NO: 2) (RKQGRVEILYRGSWGTVC; also: conjugated via SBA linker to APTES-coated SPIONs)”, in [1], the “reduction of LTA” value turned out to be 29% and the LTA bound came out at 0.97 ng/mL. In the data set on Staphylococcus aureus, the “Staphylococcus aureus after separation” value is on record as 73 CFU/ml and the “CFU of re-plated bacteria loaded particles” value is recorded as “in the range of the positive control”. Moreover, the “Pseudomonas aeruginosa after separation” value with Pseudomonas aeruginosa was 7 CFU/ml.

As to “SPION^APTES-SBA-SPP04: APTES-coated SPIONs linked via SBA to peptide SPP04 (SEQ ID NO: 1) (RKQGRVEVLYRASWGTVC; also: conjugated via SBA linker to APTES-coated SPIONs)”, the “particle diameter after functionalization with peptide” value in data set [2] is 2.54 μm. Besides, the “binding of LPS” value in data set [3] (0.01 mg Fe/ml (FIG. 8C, D)) was “about 50%”. Further, in [3] (0.01 mg Fe/ml, 3 seconds), the “reduction / binding of LPS, all LPS types” value was “at least 40%”. In data set [3] (0.01 mg Fe/ml, 30 seconds), the “reduction of LPS, all three LPS types” value is reported as “at least 48%”. Further, in data set [3] (1 mg Fe/ml, 3 s), the LPS bound is given as 94% and the “remaining LPS” value is given as “up to 6%”. Moreover, in [3] (1 mg Fe/ml, 30 s of agitation), the “LPS removal” value is listed as “completely removed the LPS below the detection limit; also recorded: completely removed the endotoxin below the detection limit”. Also, in [1], the “reduction of LTA” value is 30% and the LTA bound was 0.75 ng/mL. Moreover, the “remaining micromer^LPS” value in [4] came out at 0.023 mg/mL. Moreover, the “E. coli in supernatant” value with E. coli [5] (0.1 mg Fe/ml) is given as 170 CFUs. Moreover, the “E. coli in supernatant” value with E. coli [5] (1.0 mg Fe/ml) stood at 2 CFU/ml. Moreover, in the data set on Staphylococcus aureus, the “Staphylococcus aureus after separation” value worked out at 27 CFU/ml and the “CFU of re-plated bacteria loaded particles” value is “in the range of the positive control; also recorded: even increased”. In addition, in the data set on Pseudomonas aeruginosa, the “Pseudomonas aeruginosa after separation” value is recorded as 2 CFU/ml. In the data set on Serratia marcescens (from 1300 CFU/ml, 0.3 mg Fe/ml), the “Serratia marcescens after separation” value is 26 CFU/ml. For the same substance, the “recovery from redispersed, plated particles” value with Serratia marcescens (re-plating, Serratia marcescens) is reported as 1227 CFU/ml. Also, in the data set with E. coli [6] (EDTA-stabilized blood), the “replating of extracted bacteria” value turned out to be 1066 CFU/ml. The “reduction of bacterial load” value in the data set on E. coli [6] (EDTA-stabilized blood, 0.3 mg Fe/ml) is on record as “around 40%”. Besides, in the data set with E. coli [6] (EDTA-stabilized blood, from 2867 CFU/ml, 0.3 mg Fe/ml), the “E. coli remaining in blood” value came out at 1733 CFU/ml. In the data set with E. coli [6] (citrate-stabilized blood), the “replating of extracted bacteria” value is 913 CFU/ml. Further, the “E. coli remaining in blood” value in the data set on E. coli [6] (citrate-stabilized blood, from 1913 CFU/ml, 0.3 mg Fe/ml) turned out to be 927 CFU/ml. Further, the “plating of sample concentrated with SPIONs” value in the data set with bacteria was “dense bacterial lawn”.
